Drawing on patent US20240190883A1, “KRAS PROTEIN DEGRADERS, PHARMACEUTICAL COMPOSITIONS THEREOF, AND THEIR THERAPEUTIC APPLICATIONS” (BioTheryX, Inc., priority 2021, published 2024), this text covers IC50 for 13 molecules.

The IC50 is the concentration needed to halve the response being measured.

Format in all cases: cell-based
For assay [1], the system named is AsPC-1 (G12D) cells. Briefly: Cell viability assay (CELLTITER-GLO), AsPC-1 cells. Conditions: 3 days incubation, 2.5% fetal bovine serum, read-out: Inhibition of Cancerous Cells IC50 (μM) AsPC-1 (G12D). As to the method: (§1) H358, H23, SW48, and AsPC-1 cells were cultured in RPMI 1640 media supplemented with 10% fetal bovine serum, streptomycin, and penicillin. Lovo and SW480 cells were cultured in DMEM media supplemented with 10% fetal bovine serum, streptomycin, and penicillin. The cell lines were plated in their respective medium supplemented with 2.5% fetal bovine serum, streptomycin, and penicillin. All cell lines were plated in white walled 96-well plates at 2,000 cells/well or 384-well plates at 500 cells/well, except Lovo, which were plated at 4,000 or 1,000 cells/well, respectively. The cells were incubated in DMSO (control) or a compound for 3 days at 37° C. under 5% C02. A CELLTITER-GLO® reagent (100 μL) was then added to each well. After a 10 min incubation with shaking, luminescence was measured using an ENVISION® multimode plate reader. IC50 values are summarized in Table 1 and percentages of inhibition are summarized in Table 2, where compound T1 is 2-(4-(2-methyl-3,5-diphenylpyrazolo[1,5-a]pyrimidin-7-yl)piperazin-1-yl)ethan-1-ol.
(In general: ATP-based viability assays read luminescence as a measure of living cells.)

Assay [2] concerns SW480 (G12V) cells. Briefly: Cell viability assay (CELLTITER-GLO), SW480 cells. Particulars: 3 days incubation, 2.5% fetal bovine serum, read-out: Inhibition of Cancerous Cells IC50 (μM) SW480 (G12V). The method, then: as §1
Assay [3] has as its system SW48 (wt) cells. Briefly: Cell viability assay (CELLTITER-GLO), SW48 cells. Conditions: 3 days incubation, 2.5% fetal bovine serum, read-out: Inhibition of Cancerous Cells IC50 (μM) SW48 (wt). As to the method: as §1
Assay [4] has as its system Lovo (G13D) cells. Briefly: Cell viability assay (CELLTITER-GLO), Lovo cells. Conditions: 3 days incubation, 2.5% fetal bovine serum, read-out: Inhibition of Cancerous Cells IC50 (μM) Lovo (G13D). As to the method: as §1
Assay [5] deals with H358 (G12C) cells. Briefly: Cell viability assay (CELLTITER-GLO), H358 cells. Conditions: 3 days incubation, 2.5% fetal bovine serum, read-out: Inhibition of Cancerous Cells IC50 (μM) H358 (G12C). As to the method: as §1

SMILES strings stand for the structures. Where two headings read alike, the source gives them in different places.

For `Cc1nn2c(N3CCN(CCO)CC3)cc(-c3ccccc3)nc2c1-c1cccc(CCCN2CCN(C(=O)CNc3cccc4c(C5CCC(=O)NC5=O)nn(C)c34)CC2)c1` (stereo not drawn) [Compound D10, 3-(7-((2-(4-(3-(3-(7-(4-(2-Hydroxyethyl)piperazin-1-yl)-2-methyl-5-phenyl-pyrazolo[1,5-a]pyrimidin-3-yl)phenyl)propyl)piperazin-1-yl)-2-oxoethyl)amino)-1-methyl-1H-indazol-3-yl)piperidine-2,6-dione], the IC50 in assay [1] (Homo sapiens, ASPC1, 72 h) turned out to be 1.4 µM; in assay [2] (Homo sapiens, 72 h), 0.63 µM; in assay [3] (Homo sapiens, 72 h), 1.3 µM; in assay [4] (Homo sapiens, 72 h), 0.87 µM; in assay [5] (Homo sapiens, NCI-H358, 72 h), 2.4 µM.

With `Cc1nn2c(N3CCN(CCO)CC3)cc(-c3ccccc3)nc2c1-c1cccc(CCCCCCCN2CCN(C(=O)COc3ccc(N4CCC(=O)NC4=O)cc3)CC2)c1` [Compound C8, 1-(4-(2-(4-(7-(3-(7-(4-(2-Hydroxyethyl)piperazin-1-yl)-2-methyl-5-phenyl-pyrazolo[1,5-a]pyrimidin-3-yl)phenyl)heptyl)piperazin-1-yl)-2-oxoethoxy)phenyl)dihydro-pyrimidine-2,4(1H,3H)-dione], the concentration for half-maximal inhibition (IC50) in assay [1] (Homo sapiens, ASPC1, 72 h) is 1.1 µM; in assay [2] (Homo sapiens, 72 h), 0.42 µM; in assay [3] (Homo sapiens, 72 h) it was 0.66 µM; in assay [4] (Homo sapiens, 72 h), 0.71 µM; in assay [5] (Homo sapiens, NCI-H358, 72 h), 1.1 µM.

On to `Cc1nn2c(N3CCN(CCO)CC3)cc(-c3ccccc3)nc2c1-c1cccc(CCCCCCCN2CCN(C(=O)CNc3ccc4c(C5CCC(=O)NC5=O)nn(C)c4c3)CC2)c1` (stereo not drawn) [Compound D9, 3-(6-((2-(4-(7-(3-(7-(4-(2-Hydroxyethyl)piperazin-1-yl)-2-methyl-5-phenyl-pyrazolo[1,5-a]pyrimidin-3-yl)phenyl)heptyl)piperazin-1-yl)-2-oxoethyl)amino)-1-methyl-1H-indazol-3-yl)piperidine-2,6-dione], for which the IC50 in assay [1] (Homo sapiens, ASPC1, 72 h) was 1.3 µM; in assay [2] (Homo sapiens, 72 h), 0.46 µM; in assay [3] (Homo sapiens, 72 h) it was 0.72 µM; in assay [4] (Homo sapiens, 72 h), 0.51 µM; in assay [5] (Homo sapiens, NCI-H358, 72 h), 1 µM.

As to `Cc1nn2c(N3CCN(CCO)CC3)cc(-c3cccc(CCCCCN4CCN(C(=O)CNc5ccc6c(C7CCC(=O)NC7=O)nn(C)c6c5)CC4)c3)nc2c1-c1ccccc1` (stereo not drawn) [Compound D2, 3-(6-((2-(4-(5-(3-(7-(4-(2-hydroxyethyl)piperazin-1-yl)-2-methyl-3-phenylpyrazolo[1,5-a]pyrimidin-5-yl)phenyl)pentyl)piperazin-1-yl)-2-oxoethyl)amino)-1-methyl-1H-indazol-3-yl)piperidine-2,6-dione], the IC50 amounted to 0.45 µM in assay [2] (Homo sapiens, 72 h); 0.52 µM in assay [3] (Homo sapiens, 72 h); 0.32 µM in assay [4] (Homo sapiens, 72 h); 0.82 µM in assay [5] (Homo sapiens, NCI-H358, 72 h).

In the case of `Cc1nn2c(N3CCN(CCO)CC3)cc(-c3ccccc3)nc2c1-c1cccc(CCCCCCCN2CCN(C(=O)COc3cccc(N4CCC(=O)NC4=O)c3)CC2)c1` [Compound C11, 1-(3-(2-(4-(7-(3-(7-(4-(2-Hydroxyethyl)piperazin-1-yl)-2-methyl-5-phenyl-pyrazolo[1,5-a]pyrindin-3-yl)phenyl)heptyl)piperazin-1-yl)-2-oxoethoxy)phenyl)dihydro-pyrimidine-2,4(1H,3H)-dione], the IC50 in assay [1] (Homo sapiens, ASPC1, 72 h) stood at 1.2 µM; in assay [2] (Homo sapiens, 72 h), 0.53 µM; in assay [3] (Homo sapiens, 72 h), 1.1 µM; in assay [4] (Homo sapiens, 72 h) it was 0.89 µM; in assay [5] (Homo sapiens, NCI-H358, 72 h) it was 1.2 µM.

For `Cc1nn2c(N3CCN(CCO)CC3)cc(-c3cccc(CCCN4CCN(C(=O)CNc5ccc(C6CCC(=O)NC6=O)cc5)CC4)c3)nc2c1-c1ccccc1` (stereo not drawn) [Compound B1, 3-(4-((2-(4-(3-(3-(7-(4-(2-Hydroxyethyl)piperazin-1-yl)-2-methyl-3-phenyl-pyrazolo[1,5-a]pyrimidin-5-yl)phenyl)propyl)piperazin-1-yl)-2-oxoethyl)amino)phenyl)-piperidine-2,6-dione], the IC50 in assay [2] (Homo sapiens, 72 h) was 1.2 µM; in assay [3] (Homo sapiens, 72 h) it was 1.1 µM; in assay [4] (Homo sapiens, 72 h) it was 0.74 µM; in assay [5] (Homo sapiens, NCI-H358, 72 h), 0.94 µM.

`Cc1nn2c(N3CCN(CCO)CC3)cc(-c3ccccc3)nc2c1-c1cccc(CCCCCN2CCN(C(=O)COc3ccc(N4CCC(=O)NC4=O)cc3)CC2)c1` [Compound C7, 1-(4-(2-(4-(5-(3-(7-(4-(2-hydroxyethyl)piperazin-1-yl)-2-methyl-5-phenyl-pyrazolo[1,5-a]pyrimidin-3-yl)phenyl)pentyl)piperazin-1-yl)-2-oxoethoxy)phenyl)dihydro-pyrimidine-2,4(1H,3H)-dione]: the 50% inhibitory concentration (IC50) came out at 0.91 µM in assay [1] (Homo sapiens, ASPC1, 72 h); 0.45 µM in assay [2] (Homo sapiens, 72 h); 0.7 µM in assay [3] (Homo sapiens, 72 h); 0.73 µM in assay [4] (Homo sapiens, 72 h); 1.1 µM in assay [5] (Homo sapiens, NCI-H358, 72 h).

As to `Cc1nn2c(N3CCN(CCO)CC3)cc(-c3cccc(CCCN4CCN(C(=O)CNc5cccc6c(C7CCC(=O)NC7=O)nn(C)c56)CC4)c3)nc2c1-c1ccccc1` (stereo not drawn) [Compound D4, 3-(7-((2-(4-(3-(3-(7-(4-(2-Hydroxyethyl)piperazin-1-yl)-2-methyl-3-phenyl-pyrazolo[1,5-a]pyrimidin-5-yl)phenyl)propyl)piperazin-1-yl)-2-oxoethyl)amino)-1-methyl-1H-indazol-3-yl)piperidine-2,6-dione], the half-inhibitory concentration (IC50) turned out to be 0.84 µM in assay [2] (Homo sapiens, 72 h); 0.94 µM in assay [3] (Homo sapiens, 72 h); 0.52 µM in assay [4] (Homo sapiens, 72 h); 0.75 µM in assay [5] (Homo sapiens, NCI-H358, 72 h).

With `Cc1nn2c(N3CCN(CCO)CC3)cc(-c3ccccc3)nc2c1-c1cccc(CCCCCCCCCN2CCN(C(=O)COc3ccc(N4CCC(=O)NC4=O)cc3)CC2)c1` [Compound C9, 1-(4-(2-(4-(9-(3-(7-(4-(2-hydroxyethyl)piperazin-1-yl)-2-methyl-5-phenyl-pyrazolo[1,5-a]pyrimidin-3-yl)phenyl)nonyl)piperazin-1-yl)-2-oxoethoxy)phenyl)dihydro-pyrimidine-2,4(1H,3H)-dione], the concentration for half-maximal inhibition (IC50) worked out at 0.96 µM in assay [1] (Homo sapiens, ASPC1, 72 h); 0.42 µM in assay [2] (Homo sapiens, 72 h); 0.48 µM in assay [3] (Homo sapiens, 72 h); 0.47 µM in assay [4] (Homo sapiens, 72 h); 1.1 µM in assay [5] (Homo sapiens, NCI-H358, 72 h).

Turning to `Cc1nn2c(N3CCN(CCO)CC3)cc(-c3ccccc3)nc2c1-c1cccc(CCCCCN2CCN(C(=O)CNc3ccc4c(N5CCC(=O)NC5=O)nn(C)c4c3)CC2)c1` [Compound D14, 1-(6-((2-(4-(5-(3-(7-(4-(2-Hydroxyethyl)piperazin-1-yl)-2-methyl-5-phenyl-pyrazolo[1,5-a]pyrimidin-3-yl)phenyl)pentyl)piperazin-1-yl)-2-oxoethyl)amino)-1-methyl-1H-indazol-3-yl)dihydropyrimidine-2,4(1H,31H)-dione], the IC50 in assay [1] is above 10 µM; in assay [2], 1.1 µM; in assay [3] it was above 10 µM; in assay [4], 0.62 µM; in assay [5], 2.2 µM.

As for `Cc1nn2c(N3CCN(CCO)CC3)cc(-c3ccccc3)nc2c1-c1cccc(CCCCCN2CCN(C(=O)CNc3cccc4c(C5CCC(=O)NC5=O)nn(C)c34)CC2)c1` (stereo not drawn) [Compound D11, 3-(7-((2-(4-(5-(3-(7-(4-(2-Hydroxyethyl)piperazin-1-yl)-2-methyl-5-phenyl-pyrazolo[1,5-a]pyrimidin-3-yl)phenyl)pentyl)piperazin-1-yl)-2-oxoethyl)amino)-1-methyl-1H-indazol-3-yl)piperidine-2,6-dione], the IC50 was 1.4 µM in assay [1] (Homo sapiens, ASPC1, 72 h); 0.48 µM in assay [2] (Homo sapiens, 72 h); 0.84 µM in assay [3] (Homo sapiens, 72 h); 0.73 µM in assay [4] (Homo sapiens, 72 h); 1.2 µM in assay [5] (Homo sapiens, NCI-H358, 72 h).

On to `Cc1nn2c(N3CCN(CCO)CC3)cc(-c3cccc(CCCCCN4CCN(C(=O)CNc5ccc(C6CCC(=O)NC6=O)cc5)CC4)c3)nc2c1-c1ccccc1` (stereo not drawn) [Compound B2, 3-(4-((2-(4-(5-(3-(7-(4-(2-hydroxyethyl)piperazin-1-yl)-2-methyl-3-phenylpyrazolo[1,5-a]pyrimidin-5-yl)phenyl)pentyl)piperazin-1-yl)-2-oxoethyl)amino)phenyl)piperidine-2,6-dione], for which the IC50 was found to be 0.39 µM in assay [2] (Homo sapiens, 72 h); 0.49 µM in assay [3] (Homo sapiens, 72 h); 0.4 µM in assay [4] (Homo sapiens, 72 h); 0.71 µM in assay [5] (Homo sapiens, NCI-H358, 72 h).

As to `Cc1nn2c(N3CCN(CCO)CC3)cc(-c3cccc(CCCN4CCN(C(=O)CNc5cccc(C6CCC(=O)NC6=O)c5)CC4)c3)nc2c1-c1ccccc1` (stereo not drawn) [Compound B4, 3-(3-((2-(4-(3-(3-(7-(4-(2-Hydroxyethyl)piperazin-1-yl)-2-methyl-3-phenyl-pyrazolo[1,5-a]pyrimidin-5-yl)phenyl)propyl)piperazin-1-yl)-2-oxoethyl)amino)phenyl)-piperidine-2,6-dione], the IC50 in assay [2] (Homo sapiens, 72 h) is 1.3 µM; in assay [3] (Homo sapiens, 72 h), 1.4 µM; in assay [4] (Homo sapiens, 72 h) it was 1.1 µM; in assay [5] (Homo sapiens, NCI-H358, 72 h), 1.1 µM.
